We go through one compound from patent publication US10442767B2 (priority 2012, dated 2019).

The test system of data set [1] is hypomyelinated optic nerves from Shiverer mice (shi^−/−). The experiment in a line: Compound action potential (CAP) of dissected hypomyelinated optic nerve. The data set is classed as cell-based, mouse. The method, then:
(§1) In order to determine if the drugs could also be effective in enhancing compound action potentials (CAP), the effects of these compounds on the CAP of hypomyelinated optic nerves from Shiverer mice (shi^−/−) and control mice (shi^+/−, shi^+/+) were tested. Shiverer mice lack compact myelin in the CNS due to a null mutation of the myelin basic protein gene (MBP).
optic nerves were dissected from 12-16 week old Shiverer (shi^−/−) and control mice (shi^+/− and shi^+/+). Mice were euthanized by CO2 overdose and the optic nerves were quickly dissected between the eyeball and the optic chiasm. The nerves were incubated for 30 min at 37° C. in oxygenated (95% O2, 5% CO2) aCSF solution (126 mM NaCl, 3 mM KCl, 2 mM MgSO4, 26 mM NaHCO3, 2 mMCaCl2, 10 mM dextrose, pH 7.5) before the experiment.
compound action potentials (CAP) from hypomyelinated nerves (Shiverer mice, shi^−/−) and myelinated nerves (litermate controls, shi^+/− and shi^+/+) were recorded using suction electrodes as described by Stys et al. Briefly, the dissected optic nerve was placed inside a chamber containing oxygenated (5% CO2, 95% O2) aCSF (300 μL) between two suction electrodes (stimulus and recording electrodes) forming a tight seal on each end. Two additional electrodes were placed in the bath for reference. A supramaximal pulse (250 mV, 20 μs) was applied at the stimulating end of the nerve. The resulting CAP was amplified from the recording electrode using a high impedance low-noise amplifier (EG&G Princeton Applied Research Corporation) and filtered and sampled at 10-100 kHz. […] After each measurement the chamber was washed for 5 min (flow 1 mL/min) with oxygenated aCSF. The study was conducted at 22.2±1.3° C. to allow for slower conduction and the temperature was monitored throughout the experiment. CAP recordings were acquired with a SBC6711 board (Innovative Integration) controlled by in-house written software. Analysis of the traces was done using an in-house software. The half-maximal effective concentration (EC50) for each drug was calculated by plotting the final over initial amplitude vs. concentration and fitted to the Hill equation using Origin.
(§2) The Hill equation used to fit the data from the voltage-clamp and the optic nerve experiments was as follows: y=y0+(yf−y0)*x^n/(k^n+x^n); where n refers to the Hill coefficient (typically 1±0.1) and k refers to EC50 or IC50. y0 and yf refers to the origin and final ordinate values and were fixed at 1±0.1 or 0±0.1 depending on the experiment. EC50=10^<log EC50>; where <log EC50>=average of log EC50 values from all experiments with the same drug. 95% C.I.=[Upper Limit . . . Lower Limit]; where U.L.=10^(log EC50+s.d.) and L.L.=10^(log EC50−s.d.). The half-life (t1/2) in the stability and pharmacokinetic experiments was calculated by fitting the data to the equation Ct=C0*exp(−k*t) where C0=initial concentration, Ct=concentration at time t, and k=ln 2/t1/2. Student t-test was used to compare results and P<0.05 was considered significant.

In data set [2] the test system is normally myelinated optic nerves from control mice (shi^+/−, shi^+/+). Description: Compound action potential (CAP) of dissected normally myelinated optic nerve. It is filed as cell-based, mouse. As for the experimental part:
as §1
optic nerves were dissected from 12-16 week old Shiverer (shi^−/−) and control mice (shi^+/− and shi^+/+). Mice were euthanized by CO2 overdose and the optic nerves were quickly dissected between the eyeball and the optic chiasm. […]
compound action potentials (CAP) from hypomyelinated nerves (Shiverer mice, shi^−/−) and myelinated nerves (litermate controls, shi^+/− and shi^+/+) were recorded using suction electrodes as described by Stys et al. Briefly, the dissected optic nerve was placed inside a chamber containing oxygenated (5% CO2, 95% O2) aCSF (300 μL) between two suction electrodes (stimulus and recording electrodes) forming a tight seal on each end. […] The study was conducted at 22.2±1.3° C. to allow for slower conduction and the temperature was monitored throughout the experiment. […] The half-maximal effective concentration (EC50) for each drug was calculated by plotting the final over initial amplitude vs. concentration and fitted to the Hill equation using Origin.

Data set [3] deals with C57Bl/6J mice. Description: In vivo effects (tremor, seizures) after intraperitoneal injection. Set-up: species or system mouse. To be noted: i.p.; for Effect: N = 5. The method, then:
A consequence of excessive K^+ channel blockage is the advent of seizures. 4-AP is known to cause seizures in mice at high doses.
At high doses, 4-AP causes tremors, muscle spasms and seizures.
10-week-old female C57Bl/6J mice were given an intraperitoneal injection of the drug under investigation and monitored continuously for 4 h. After 4 h no signs of drug effects could be observed. At least 72 h passed between injections to the same mice.

Data set [4] in a line: Parallel Artificial Membrane Permeability Assay (PAMPA). It is filed as in vitro ADME. The note with it: porcine polar brain lipids, 0.5 mM, 16 h, n=3. The method, then:
In this experiment, the inventors included highly permeable verapamil and lowly permeable theophylline as controls.
Permeability studies were performed as previously described by Sugano, et al., 2011. A 96-well microplate (acceptor compartment) was filled with PBS containing 5% DMSO. A hydrophobic filter plate (donor compartment) was placed atop the buffer-filled plate and the filter surface was impregnated with 5 μL solution of porcine polar brain lipids (Avanti Lipids) in dodecane (1% w/v). 150 μL of the test compounds dissolved in PBS containing 5% DMSO (compound concentration 0.5 mM) was added to the donor compartment and covered. The only barrier between the two compartments was the artificial BBB membrane containing the porcine polar brain lipids. The whole system was incubated for several hours.
(In general: The PAMPA barrier holds no transporters, so it reflects passive diffusion.)

A short description of data set [5]: Pharmacokinetic study after single intravenous dose. The data set is classed as in vivo, mice (CD-1). To be noted: female, CD-1, mouse, mice, i.v. 0.75 mg/kg. The method, then:
39 mice (CD-1, 6-weeks old, female) were used in the study. […] The drugs were dissolved in PBS and administered via tail-vein injection to achieve a dose of 0.75 mg/kg of body weight. At specific times post injection (10 min, 30 min, 1 h, 2 h, 4 h and 24 h) blood and brain samples were collected. Blood samples were transferred into tubes containing 5% EDTA, stored on ice, and centrifuged (4° C., 1000 rpm, 15 min). Plasma (upper phase) was transferred to a new tube and stored at −80° C. for further analysis. Brain tissue samples were collected after intracardial perfusion of the mouse. Brain tissue samples were stored at −80° C. for further analysis. Drug quantification in plasma: Briefly, to a 1.5 mL Eppendorf tube containing 50 μl of plasma, 200 μl of ice-cold acetonitrile containing 1,000 ng/ml Progesterone (used as internal standard) was added in order to precipitate the proteins. The sample was vortexed, mixed and centrifuged at 4000×g for 10 min at 4° C. to remove precipitates. 140 μl supernatant was collected and transferred to a 500 μl 96-well polypropylene plate and covered using silicone plate mat. 40 μl of sample was injected in into LC-MS. Using the same sample preparation procedure 11 standard solutions ranging from 50 ng/mL to 100 μg/mL were prepared, analyzed by LC-MS and used as a calibration curve to correlate peak area of the samples to concentration. Drug quantification in brain: the mouse brain was weighted and 1 mL of water per 400 mg of tissue was added. The sample was homogenized using an electric tissue homogenizer. To a 1.5 mL Eppendorf tube containing 50 μl of homogenized sample, 200 μl of ice-cold acetonitrile containing 1000 ng/ml Demeclocycline (used as internal standard) was added in order to precipitate the proteins. The sample was vortexed, mixed and centrifuged at 4000×g for 10 min at 4° C. to remove precipitates. 140 μl supernatant was collected and transferred to a 500 μl 96-well polypropylene plate and covered using silicone plate mat. 40 μl of each sample was injected into LC-MS. Using the same sample preparation procedure 11 standard solutions ranging from 50 ng/mL to 100 μg/mL were prepared, analyzed by LC-MS and used as a calibration curve to correlate peak area of the samples to concentration.
as §2

A short description of data set [6]: Brain distribution of [^3H] 4-AP in LPC-injected mice by autoradiography. To be noted: [^3H] 4-AP 0.4 μCi/g i.v., 20-60 min. It is filed as in vivo. The method, then:
The inventors conducted an experiment to evaluate if 4-AP selectively localizes in demyelinated (injured) areas. […] The lesions were caused by prior injection of lysophosphatidylcholine (LPC), also called lysolecithin, into their brains, which causes focal demyelination at the site of injection. Two days after LPC injection, at the peak of demyelination, the animals were injected with [^3H] […] Twenty to sixty minutes after injection of [^3H] 4-AP the mice were euthanized and their brains were dissected and frozen. The frozen brains were then cut into 20 μm sections using a cryostat and the sections mounted in slides. The slides were then exposed to radiation sensitive X-ray film at −80° C. in the dark for forty days to capture the distribution of radioactivity coming from [^3H] 4-AP throughout the brain.
After autoradiographic exposure, the slides were stained for myelin basic protein (MBP) using immunohistochemistry and imaged using fluorescent microscopy to determine the areas of demyelination.

The subject of data set [7] is K^+ channels. The note with it: cited from earlier work.

Read-outs that look alike come from different tables or passages of the source.

Turning to `Nc1ccncc1` [4-AP, 4-aminopyridine, reference compound], the EC50 in data set [1] (Mus musculus, hypomyelinated Shiverer optic nerve, 22 °C, Hill fit, read-out: half-maximal effective concentration (EC50) in enhancing the CAP) is 59.2 µM. Moreover, the “increase in CAP amplitude” value in data set [1] (hypomyelinated nerves) is 2-4 fold; in data set [2], “around 5%”. Also, the Effect result in data set [3] (30 μmol/kg) is “Mild tremor, mouse quiet”; in data set [3] (60 μmol/kg) it was “Severe tremor, mild jerks, salivation”; in data set [3] (90 μmol/kg), “Severe tremors and seizures that start”. Besides, the “duration of tremors and seizures” value in data set [3] (90 μmol/kg) was about 2 h. For the same compound, the “start of tremors and seizures post-injection” value in data set [3] (90 μmol/kg (highest dose)) came out at 10 min. Further, in data set [4], the “Pe: permeability coefficient across artificial membrane” value was found to be 0.236 ± 0.003 ×10⁻⁶ cm/s. Moreover, the Kp in data set [5] (brain and plasma, read-out: Cbrain/Cplasma (maximum in the brain over maximum in plasma)) is 0.1 ± 0.05. For the same compound, the half-life – broadly, the time in which the quantity being followed falls by half – in data set [5] (brain, read-out: half-life in brain (converted)) is 1.9 h; in data set [5] (plasma, read-out: half-life in plasma (converted)), 0.33 h. For the same compound, the “brain localization by autoradiography” value in data set [6] is “localizes to demyelinated areas but not myelinated areas”. Besides, in data set [7] (in vitro), the in vitro affinity is about 250 µM. For the same compound, in data set [7] (in vivo), the “concentration active in vivo” value is about 0.5 µM.
